Test results reported in PubChem BioAssay (NCI).
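A five-concentration, 48-hour dose response in 96-well plates underlies each endpoint, interpolated linearly between surrounding concentrations. Here, GI50 denotes the concentration required for 50% inhibition of growth. TGI: total growth inhibition.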

Tests used:
Assay in all cases: NCI-60 cell line screen, 48 h; in the data active = GI50 below about 0.43 µM; inactive = the rest
SR leukemia = tested on: SR leukemia
IGROV1 ovarian = tested on: IGROV1 ovarian
HCC-2998 colon = tested on: HCC-2998 colon
CCRF-CEM leukemia = tested on: CCRF-CEM leukemia
NCI/ADR-RES ovarian = tested on: NCI/ADR-RES ovarian
LOX IMVI melanoma = tested on: LOX IMVI melanoma
NCI-H522 lung = tested on: NCI-H522 lung
SW-620 colon = tested on: SW-620 colon
TK-10 renal = tested on: TK-10 renal
OVCAR-5 ovarian = tested on: OVCAR-5 ovarian
RXF 393 renal = tested on: RXF 393 renal
NCI-H23 lung = tested on: NCI-H23 lung
SK-OV-3 ovarian = tested on: SK-OV-3 ovarian
MDA-MB-435 = tested on: MDA-MB-435
PC-3 prostate = tested on: PC-3 prostate
EKVX NSCLC = tested on: EKVX NSCLC
RPMI-8226 leukemia = tested on: RPMI-8226 leukemia
SNB-19 CNS = tested on: SNB-19 CNS
OVCAR-8 ovarian = tested on: OVCAR-8 ovarian
COLO 205 colon = tested on: COLO 205 colon
UACC-257 melanoma = tested on: UACC-257 melanoma
OVCAR-4 ovarian = tested on: OVCAR-4 ovarian
SK-MEL-2 melanoma = tested on: SK-MEL-2 melanoma
SK-MEL-5 melanoma = tested on: SK-MEL-5 melanoma
M14 melanoma = tested on: M14 melanoma
KM12 colon = tested on: KM12 colon
ACHN renal = tested on: ACHN renal
SK-MEL-28 melanoma = tested on: SK-MEL-28 melanoma
HT29 colon = tested on: HT29 colon
SN12C renal = tested on: SN12C renal
MOLT-4 leukemia = tested on: MOLT-4 leukemia
SF-539 CNS = tested on: SF-539 CNS
SF-295 CNS = tested on: SF-295 CNS
K-562 leukemia = tested on: K-562 leukemia
U251 CNS = tested on: U251 CNS
BT-549 breast = tested on: BT-549 breast
CAKI-1 renal = tested on: CAKI-1 renal
DU-145 prostate = tested on: DU-145 prostate
OVCAR-3 ovarian = tested on: OVCAR-3 ovarian
NCI-H226 lung = tested on: NCI-H226 lung
HOP-62 NSCLC = tested on: HOP-62 NSCLC
HCT-15 colon = tested on: HCT-15 colon
SNB-75 CNS = tested on: SNB-75 CNS
786-0 renal = tested on: 786-0 renal
NCI-H460 lung = tested on: NCI-H460 lung
SF-268 CNS = tested on: SF-268 CNS
A549 NSCLC = tested on: A549 NSCLC
UACC-62 melanoma = tested on: UACC-62 melanoma
MCF7 breast = tested on: MCF7 breast
MALME-3M melanoma = tested on: MALME-3M melanoma
UO-31 renal = tested on: UO-31 renal
HS 578T breast = tested on: HS 578T breast
MDA-MB-231 breast = tested on: MDA-MB-231 breast
HOP-92 NSCLC = tested on: HOP-92 NSCLC
HL-60(TB) leukemia = tested on: HL-60(TB) leukemia
HCT-116 colon = tested on: HCT-116 colon

CC(C)=CC1=C2C3=C(C(=O)C4(O)Oc5c(C)c6c7c(c5OC24C)[C@@H](C)CC[C@@H]7[C@@H](C)C[C@H]6C=C(C)C)C(C)CCC3C(C)C1 (some centres undefined)
inactive: GI50 (SR leukemia) > 100 µM | GI50 (IGROV1 ovarian) > 100 µM | GI50 (HCC-2998 colon) > 100 µM | GI50 (CCRF-CEM leukemia) > 100 µM | GI50 (NCI/ADR-RES ovarian) > 100 µM | GI50 (LOX IMVI melanoma) > 100 µM | GI50 (NCI-H522 lung) > 100 µM | GI50 (SW-620 colon) > 100 µM | GI50 (TK-10 renal) > 100 µM | GI50 (OVCAR-5 ovarian) > 100 µM | GI50 (RXF 393 renal) > 100 µM | GI50 (NCI-H23 lung) > 100 µM | GI50 (SK-OV-3 ovarian) > 100 µM | GI50 (MDA-MB-435) > 100 µM | GI50 (PC-3 prostate) > 100 µM | GI50 (EKVX NSCLC) > 100 µM | GI50 (RPMI-8226 leukemia) > 100 µM | GI50 (SNB-19 CNS) > 100 µM | GI50 (OVCAR-8 ovarian) > 100 µM | GI50 (COLO 205 colon) > 100 µM | GI50 (UACC-257 melanoma) > 100 µM | GI50 (OVCAR-4 ovarian) > 100 µM | GI50 (SK-MEL-2 melanoma) > 100 µM | GI50 (SK-MEL-5 melanoma) > 100 µM | GI50 (M14 melanoma) > 100 µM | GI50 (KM12 colon) > 100 µM | GI50 (ACHN renal) > 100 µM | GI50 (SK-MEL-28 melanoma) 8.82 µM | GI50 (HT29 colon) > 100 µM | GI50 (SN12C renal) > 100 µM | GI50 (MOLT-4 leukemia) > 100 µM | GI50 (SF-539 CNS) > 100 µM | GI50 (SF-295 CNS) > 100 µM | GI50 (K-562 leukemia) > 100 µM | GI50 (U251 CNS) > 100 µM | GI50 (BT-549 breast) > 100 µM | GI50 (CAKI-1 renal) > 100 µM | GI50 (DU-145 prostate) > 100 µM | GI50 (OVCAR-3 ovarian) > 100 µM | GI50 (NCI-H226 lung) > 100 µM | GI50 (HOP-62 NSCLC) > 100 µM | GI50 (HCT-15 colon) > 100 µM | GI50 (SNB-75 CNS) > 100 µM | GI50 (786-0 renal) > 100 µM | GI50 (NCI-H460 lung) > 100 µM | GI50 (SF-268 CNS) > 100 µM | GI50 (A549 NSCLC) > 100 µM | GI50 (UACC-62 melanoma) > 100 µM | GI50 (MCF7 breast) > 100 µM | GI50 (MALME-3M melanoma) > 100 µM | GI50 (UO-31 renal) > 100 µM | GI50 (HS 578T breast) > 100 µM | GI50 (MDA-MB-231 breast) > 100 µM
> 100 µM: TGI (SR leukemia) | TGI (IGROV1 ovarian) | TGI (HCC-2998 colon) | TGI (CCRF-CEM leukemia) | TGI (NCI/ADR-RES ovarian) | TGI (LOX IMVI melanoma) | TGI (NCI-H522 lung) | TGI (SW-620 colon) | TGI (TK-10 renal) | TGI (OVCAR-5 ovarian) | TGI (RXF 393 renal) | TGI (NCI-H23 lung) | TGI (SK-OV-3 ovarian) | TGI (MDA-MB-435) | TGI (PC-3 prostate) | TGI (EKVX NSCLC) | TGI (RPMI-8226 leukemia) | TGI (SNB-19 CNS) | TGI (OVCAR-8 ovarian) | TGI (COLO 205 colon) | TGI (UACC-257 melanoma) | TGI (OVCAR-4 ovarian) | TGI (SK-MEL-2 melanoma) | TGI (SK-MEL-5 melanoma) | TGI (M14 melanoma) | TGI (KM12 colon) | TGI (ACHN renal) | TGI (SK-MEL-28 melanoma) | TGI (HT29 colon) | TGI (SN12C renal) | TGI (MOLT-4 leukemia) | TGI (SF-539 CNS) | TGI (SF-295 CNS) | TGI (K-562 leukemia) | TGI (U251 CNS) | TGI (BT-549 breast) | TGI (CAKI-1 renal) | TGI (DU-145 prostate) | TGI (OVCAR-3 ovarian) | TGI (NCI-H226 lung) | TGI (HOP-62 NSCLC) | TGI (HCT-15 colon) | TGI (SNB-75 CNS) | TGI (786-0 renal) | TGI (NCI-H460 lung) | TGI (SF-268 CNS) | TGI (A549 NSCLC) | TGI (UACC-62 melanoma) | TGI (MCF7 breast) | TGI (MALME-3M melanoma) | TGI (UO-31 renal) | TGI (HS 578T breast) | TGI (MDA-MB-231 breast)

Oc1ccc2oc3ncc(Br)c(-c4ccccc4)c3c2c1
inactive: GI50 (SR leukemia) 30.4 µM | GI50 (IGROV1 ovarian) > 100 µM | GI50 (CCRF-CEM leukemia) > 100 µM | GI50 (NCI/ADR-RES ovarian) > 100 µM | GI50 (LOX IMVI melanoma) > 100 µM | GI50 (NCI-H522 lung) > 100 µM | GI50 (SW-620 colon) > 100 µM | GI50 (TK-10 renal) > 100 µM | GI50 (OVCAR-5 ovarian) > 100 µM | GI50 (RXF 393 renal) > 100 µM | GI50 (NCI-H23 lung) > 100 µM | GI50 (SK-OV-3 ovarian) > 100 µM | GI50 (MDA-MB-435) > 100 µM | GI50 (PC-3 prostate) > 100 µM | GI50 (EKVX NSCLC) > 100 µM | GI50 (RPMI-8226 leukemia) > 100 µM | GI50 (OVCAR-8 ovarian) > 100 µM | GI50 (UACC-257 melanoma) > 100 µM | GI50 (SK-MEL-2 melanoma) > 100 µM | GI50 (SK-MEL-5 melanoma) > 100 µM | GI50 (M14 melanoma) > 100 µM | GI50 (KM12 colon) > 100 µM | GI50 (ACHN renal) > 100 µM | GI50 (SK-MEL-28 melanoma) > 100 µM | GI50 (HOP-92 NSCLC) > 100 µM | GI50 (HT29 colon) > 100 µM | GI50 (MOLT-4 leukemia) > 100 µM | GI50 (SF-295 CNS) > 100 µM | GI50 (K-562 leukemia) > 100 µM | GI50 (U251 CNS) > 100 µM | GI50 (BT-549 breast) 76.9 µM | GI50 (CAKI-1 renal) > 100 µM | GI50 (DU-145 prostate) > 100 µM | GI50 (OVCAR-3 ovarian) > 100 µM | GI50 (HL-60(TB) leukemia) > 100 µM | GI50 (HOP-62 NSCLC) > 100 µM | GI50 (HCT-15 colon) > 100 µM | GI50 (786-0 renal) > 100 µM | GI50 (NCI-H460 lung) > 100 µM | GI50 (SF-268 CNS) > 100 µM | GI50 (A549 NSCLC) > 100 µM | GI50 (MCF7 breast) > 100 µM | GI50 (UO-31 renal) > 100 µM | GI50 (HCT-116 colon) > 100 µM
> 100 µM: TGI (SR leukemia) | TGI (IGROV1 ovarian) | TGI (CCRF-CEM leukemia) | TGI (NCI/ADR-RES ovarian) | TGI (LOX IMVI melanoma) | TGI (NCI-H522 lung) | TGI (SW-620 colon) | TGI (TK-10 renal) | TGI (OVCAR-5 ovarian) | TGI (RXF 393 renal) | TGI (NCI-H23 lung) | TGI (SK-OV-3 ovarian) | TGI (MDA-MB-435) | TGI (PC-3 prostate) | TGI (EKVX NSCLC) | TGI (RPMI-8226 leukemia) | TGI (OVCAR-8 ovarian) | TGI (UACC-257 melanoma) | TGI (SK-MEL-2 melanoma) | TGI (SK-MEL-5 melanoma) | TGI (M14 melanoma) | TGI (KM12 colon) | TGI (ACHN renal) | TGI (SK-MEL-28 melanoma) | TGI (HOP-92 NSCLC) | TGI (HT29 colon) | TGI (MOLT-4 leukemia) | TGI (SF-295 CNS) | TGI (K-562 leukemia) | TGI (U251 CNS) | TGI (BT-549 breast) | TGI (CAKI-1 renal) | TGI (DU-145 prostate) | TGI (OVCAR-3 ovarian) | TGI (HL-60(TB) leukemia) | TGI (HOP-62 NSCLC) | TGI (HCT-15 colon) | TGI (786-0 renal) | TGI (NCI-H460 lung) | TGI (SF-268 CNS) | TGI (A549 NSCLC) | TGI (MCF7 breast) | TGI (UO-31 renal) | TGI (HCT-116 colon)
